Assay results reported in patent US7018801B2, “Selection of peptides with antibody-like properties” (Board of Regents, The University of Texas System, priority 2000, dated 2006).
pKd: −log10 of the molar value. Peptide text beside a SMILES is read from it.

Experiments:
[1] = biological target: ICS (pro-IL-1β-derived epitope, 14 mer) (Homo sapiens, UniProt P01584, A117G); test: Measured KD of the LEPB-ICS complex; format: binding
Text: Finally, the most rigorous tests for peptide-peptide interaction involve spectroscopic assays. These experiments provide quantitative data regarding the affinity of the LEP for the epitope target. For example, fluorescence polarization (Heyduk et al., 1996) can be employed. In this experiment, one of the peptides is synthesized with a covalently coupled fluorescein molecule. A low concentration of this species (usually 10^−8 M to 10^−10 M) is titrated with increasing amounts of a fusion protein containing the partner peptide. The increase in the polarization of the fluorescence as a result of binding of the low molecular weight fluorescein-peptide conjugate to the high molecular weight fusion protein is monitored.
The affinities of the isolated peptides for their epitope targets can be determined by a number of methods. These include fusion of one or both of the interacting peptides to heterologous proteins, followed by the binding of one of the fusions to an affinity resin. The affinity of the partner fusion protein for this resin is then determined. Another common technique is surface plasmon resonance, in which one of the interacting peptides or fusion proteins is immobilized on an appropriately modified gold surface, and the on and off rates of the partner peptide are measured using the commercially available BIAcore instrument or an equivalent. […]

[2] = biological target: T1, GST fusion protein containing the target epitope (Homo sapiens, UniProt P01584, A117G); test: Far Western blot of DBD-LEP fusions probed with GST-epitope fusion protein; format: binding; settings: extract of phage-resistant cells expressing DBD-LEP fusion; anti-GST antibody detection
T1 construct: made in house
Procedure: FIG. 5—“Far Western” blot protocol to eliminate false positives. An extract is prepared from phage-resistant cells that express the DBD-LEP fusion. This is electrophoresed through a denaturing gel, then blotted onto a membrane. This is probed with a GST fusion protein containing the target epitope, followed by labeled anti-GST antibody to visualize the site(s) of binding of the GST-peptide fusion protein.
The putative epitope-binding LEPs that survive the tests described above are then tested biochemically for epitope binding. […] This is done by expressing a GST fusion protein containing the target peptide at the C-terminus. This protein is then employed as a probe in a Far-Western blot experiment (FIG. 5). Crude extracts from cells that express the Repressor DBD-LEP fusion are electrophoresed through a denaturing gel and blotted onto a suitable surface, such a nitrocellulose. The blot is then probed with the GST-epitope fusion protein, followed by anti-GST antibody and finally an HRP-conjugated secondary to visualize the binding events. Lanes in which the band corresponding to the Repressor DBD-LEP is bound by the GST-epitope fusion protein are considered true hits.

Molecule	pKd [1]	Far Western blot signal [2]
CC(C)C[C@H](NC(=O)[C@H](CCC(=O)O)NC(=O)[C@H](C)NC(=O)[C@H](CCC(=O)O)NC(=O)[C@H](CCCCN)NC(=O)[C@H](CCCNC(=N)N)NC(=O)[C@H](C)NC(=O)[C@@H](N)CCCCN)C(=O)N[C@@H](C)C(=O)N[C@@H](C)C(=O)N[C@@H](C)C(=O)N[C@H](C(=O)N[C@@H](C)C(=O)N[C@@H](CCC(=O)O)C(=O)N[C@@H](CCC(N)=O)C(=O)O)[C@@H](C)O [LEPB] (H-KARKEAELAAATAEQ-OH)	5.70	
PCHLNCSLQTLSPTRTTPRKHCKHCFKTLSEKMKWN [LEPD]		weak or unobservable signals
